# Key:
# [1] = tested on: rabbit of normal ocular tension; experiment: Test Example 2: effect of lowering ocular tension after instillation of test compound to rabbit of normal ocular tension; type: in vivo, Japanese white male rabbits; conditions: 0.1% (W/V), 50 μL instilled; for AUC: area under curve of time vs difference in ocular tension between treated eye and eye drop base eye, up to 480 minutes; for Emax: maximum difference in ocular tension between treated eye and eye drop base eye
# Experimental: Compounds shown in Table 1 were used as test compounds. Each compound was dissolved in saline containing polysorbate 80 (hereinafter the saline will be referred to as “eye drop base A”) or in an aqueous solution of boric acid buffer (pH 7.0) containing polysorbate 80 (hereinafter the solution will be referred to as “eye drop base B”) (polysorbate 80 content of each base: 5 mg/mL), to thereby obtain a test solution. The amount of each compound in the resultant solution was 0.1% (W/V). The eye drop bases were employed as a control.
# Japanese white male rabbits (Kitayama Labes Co., Ltd.) (weight: 2.1-3.2 kg) were employed in the test. The rabbits were retained in a box-type fixation apparatus and employed in the test.
# The ocular tension of each rabbit was measured by use of Model 30 Classic Pneumatonometer (product of Mentor) without anesthesia. Before the ocular tension was measured, 0.4% oxybuprocaine hydrochloride (Benoxil 0.4% eye drop solution, product of Santen Pharmaceutical Co., Ltd.) was instilled to the eyes of each rabbit, to thereby anesthetize the surface of the cornea. The ocular tension of each rabbit was measured several times at regular intervals. After the ocular tension became stable, the ocular tension was measured three times, and the average value was employed as the ocular tension.
# A 0.1% solution of each test compound (50 μL) was instilled to one eye of each of the respective rabbits, and simultaneously the eye drop base (50 μL) was instilled to the remaining eye. The ocular tensions of both eyes were measured 60 minutes before instillation of the test compound; 0 minute immediately before instillation; and 30, 60, 90, 120, 150, 180, 240, 300, 360, 420, and 480 minutes after instillation. Two to six rabbits were employed for each test compound. For control, the eye drop base was instilled to both eyes of each respective rabbit, and the ocular tension was measured in a manner similar to that described above.
# For each test compound, the effect of lowering ocular tension was evaluated on the basis of the following values: the area under the curve of time versus change in difference between the ocular tension of the eye to which the test compound was instilled and that of the eye to which the eye drop base was instilled (hereinafter the area will be abbreviated as AUC (mmHg·min)); and the maximum value of difference between the ocular tension of the eye to which the test compound was instilled and that of the eye to which the eye drop base was instilled (hereinafter the value will be abbreviated as Emax (mmHg)).
# [2] = tested on: ocular tension in rabbits; experiment: Test Example 1: ocular tension after instillation to rabbits (FIGS. 1 and 2); type: in vivo, New Zealand white male rabbits; conditions: 0.03% and 0.1% (W/V) in 15% aqueous dimethyl sulfoxide, 50 μL instilled once; 15-180 minutes after instillation; CGS-21680 0.1% (w/v)
# Experimental: 2-(1-Octynyl)adenosine, 2-(3-hydroxy-1-propynyl)adenosine, and CGS-21680 [2-((4-(2-carboxyethyl)phenylethyl)amino)adenosine-5′-N-ethyluronamide] were used as test compounds. Each compound was dissolved in a 15% aqueous solution of dimethyl sulfoxide (hereinafter the solution will be referred to as an “eye drop base”), to thereby obtain a test solution. The amounts of 2-(1-octynyl)adenosine and 2-(3-hydroxy-1-propynyl)adenosine were 0.03% (W/V) and 0.1% (W/V), respectively. The amount of CGS-21680 in the resultant solution was 0.1% (w/v). The eye drop base was employed as a control.
# New Zealand white male rabbits (Tokyo Jikken Dobutsu) (weight: 2.2-3.1 kg) were employed in the test. […]
# The ocular tension of each rabbit was measured by use of an applanation pneumatonometer (Alcon, PTG) without anesthesia. Before the ocular tension was measured, 0.4% oxybuprocaine hydrochloride (Benoxil 0.4% eye drop, product of Santen Pharmaceutical Co., Ltd.) was instilled to the eyes of each rabbit, to thereby anesthetize the surface of the cornea. Before administration of drugs, the ocular tension of each rabbit was measured several times at 15-minute intervals until the ocular tension became stable. After the ocular tension became stable, the ocular tension was measured three times, and the average value was employed as the normal ocular tension. […]
# [3] = Test Example 3: single oral dose toxicity in rats; conditions: both sexes, SD, in vivo, rat, observed for two weeks, maximum dose
# Experimental: To six-week-old male and female SD rats (six for each group), 2-(1-octynyl)adenosine was administered orally at a single dose of 521, 729, 1020, 1429, or 2000 mg/kg.
# [4] = Test Example 3: single oral dose toxicity in dogs; conditions: both sexes, beagle, in vivo, dog, observed for two weeks, maximum dose
# Experimental: To nine-month-old male and female beagle dogs (two for each group), 2-(1-octynyl)adenosine was administered orally at a single dose of 50, 150, or 450 mg/kg.
# [5] = eye drop base A (saline with polysorbate 80)
# [6] = eye drop base B (boric acid buffer pH 7.0 with polysorbate 80)
SMILES,"AUC [1, 5] [mmHg.min]","Emax [1, 5] [mmHg]","AUC [1, 6] [mmHg.min]","Emax [1, 6] [mmHg]",also measured
"Nc1nc(C#CCCCCN2C(=O)c3ccccc3C2=O)nc2c1ncn2[C@@H]1O[C@H](CO)[C@@H](O)[C@H]1O [Compound 3, 2-(6-phthalimidyl-1-hexynyl)adenosine]",−1471.0,−6.3,,,
"Nc1nc(C#CC2CCCCC2)nc2c1ncn2[C@@H]1O[C@H](CO)[C@@H](O)[C@H]1O [Compound 12, 2-(2-cyclohexyl-1-ethynyl)adenosine]",,,−1670.2,−6.0,
"CCCOCCC#Cc1nc(N)c2ncn([C@@H]3O[C@H](CO)[C@@H](O)[C@H]3O)c2n1 [Compound 7, 2-(4-propoxy-1-butynyl)adenosine]",,,−1828.5,−4.9,
"CCOCC#Cc1nc(N)c2ncn([C@@H]3O[C@H](CO)[C@@H](O)[C@H]3O)c2n1 [Compound 6, 2-(3-ethoxy-1-propynyl)adenosine]",−1538.3,−5.3,,,melting point: 120 to 127 °C
"Nc1nc(C#CCC2CCCC2)nc2c1ncn2[C@@H]1O[C@H](CO)[C@@H](O)[C@H]1O [Compound 13, 2-(3-cyclopentyl-1-propynyl)adenosine]",,,−1053.9,−5.9,
"CCOCCCC#Cc1nc(N)c2ncn([C@@H]3O[C@H](CO)[C@@H](O)[C@H]3O)c2n1 [Compound 9, 2-(5-ethoxy-1-pentynyl)adenosine]",,,−1117.5,−3.7,
"CCCCCCCCOCCC#Cc1nc(N)c2ncn([C@@H]3O[C@H](CO)[C@@H](O)[C@H]3O)c2n1 [Compound 8, 2-(4-octoxy-1-butynyl)adenosine]",,,−1683.0,−5.4,
"CCCCCCC#Cc1nc(N)c2ncn([C@@H]3O[C@H](CO)[C@@H](O)[C@H]3O)c2n1 [Compound 2, 2-(1-octynyl)adenosine]",−1093.5,−4.2,,,"effect of lowering ocular tension (ΔIOP) [2]: excellent effect of lowering ocular tension, as compared with CGS-21680; LD50 at 2 weeks [3]: ≥ 2000 mg/kg; LD50 at 2 weeks [4]: ≥ 450 mg/kg"
"Nc1nc(C#CCC2CCCCC2)nc2c1ncn2[C@@H]1O[C@H](CO)[C@@H](O)[C@H]1O [Compound 14, 2-(3-cyclohexyl-1-propynyl)adenosine]",,,−1053.2,−4.0,
"CCCCC#Cc1nc(N)c2ncn([C@@H]3O[C@H](C(=O)NC)[C@@H](O)[C@H]3O)c2n1 [Compound 16, 2-(1-hexynyl)adenosine-4′-methylcarboxamide]",−1838.3,−6.0,,,
"CCNC(=O)[C@H]1O[C@@H](n2cnc3c(N)nc(NCCc4ccc(CCC(=O)O)cc4)nc32)[C@H](O)[C@@H]1O [CGS-21680, 2-((4-(2-carboxyethyl)phenylethyl)amino)adenosine-5′-N-ethyluronamide, reference compound]",−508.1,−2.5,,,
"CCCCC#Cc1nc(N)c2ncn([C@@H]3O[C@H](CO)[C@@H](O)[C@H]3O)c2n1 [Compound 1, 2-(1-hexynyl)adenosine]",,,−1236.0,−4.6,
"Nc1nc(C#CC2CCCC2)nc2c1ncn2[C@@H]1O[C@H](CO)[C@@H](O)[C@H]1O [Compound 11, 2-(2-cyclopentyl-1-ethynyl)adenosine]",,,−1532.7,−4.4,
"Nc1nc(C#CCCC2CCCC2)nc2c1ncn2[C@@H]1O[C@H](CO)[C@@H](O)[C@H]1O [Compound 15, 2-(4-cyclopentyl-1-butynyl)adenosine]",,,−1086.0,−5.6,
"Nc1nc(C#CCOC2CCCCC2)nc2c1ncn2[C@@H]1O[C@H](CO)[C@@H](O)[C@H]1O [Compound 10, 2-(3-cyclohexyloxy-1-propynyl)adenosine]",−945.9,−4.3,,,
"Nc1nc(C#CCO)nc2c1ncn2[C@@H]1O[C@H](CO)[C@@H](O)[C@H]1O [Compound 4, 2-(3-hydroxy-1-propynyl)adenosine]",−955.6,−4.3,,,"effect of lowering ocular tension (ΔIOP) [2]: excellent effect of lowering ocular tension, as compared with CGS-21680"
"Nc1nc(C#CC(O)c2ccccc2)nc2c1ncn2[C@@H]1O[C@H](CO)[C@@H](O)[C@H]1O (stereo partly drawn) [Compound 5, 2-(3-hydroxy-3-phenyl-1-propynyl)adenosine]",−1185.6,−4.8,,,
